Results taken from ChEMBL document CHEMBL5463727, “Data for DCP probe SGK3-PROTAC1” (2023).

Tests used:
Settings in all cases: Compound concentration 1.0 uM
[1] = molecular target: Discoidin domain-containing receptor 2 (Homo sapiens) (UniProt Q16832); experiment: % Activity remaining of DDR2 in the Dundee kinase panel at 1.0 µM
[2] = molecular target: Serine/threonine-protein kinase TBK1 (Homo sapiens) (UniProt Q9UHD2); experiment: % Activity remaining of TBK1 in the Dundee kinase panel at 1.0 µM
[3] = molecular target: Ephrin type-A receptor 4 (Homo sapiens) (UniProt P54764); experiment: % Activity remaining of EPH-A4 in the Dundee kinase panel at 1.0 µM
[4] = molecular target: Serine/threonine-protein kinase N2 (Homo sapiens) (UniProt Q16513); experiment: % Activity remaining of PRK2 in the Dundee kinase panel at 1.0 µM
[5] = molecular target: Glycogen synthase kinase-3 beta (Homo sapiens) (UniProt P49841); experiment: % Activity remaining of GSK3 beta in the Dundee kinase panel at 1.0 µM
[6] = molecular target: Serine/threonine-protein kinase pim-1 (Homo sapiens) (UniProt P11309); experiment: % Activity remaining of PIM1 in the Dundee kinase panel at 1.0 µM
[7] = molecular target: Serine/threonine-protein kinase MARK1 (Homo sapiens) (UniProt Q9P0L2); experiment: % Activity remaining of MARK1 in the Dundee kinase panel at 1.0 µM
[8] = molecular target: Serine/threonine-protein kinase PAK 2 (Homo sapiens) (UniProt Q13177); experiment: % Activity remaining of PAK2 in the Dundee kinase panel at 1.0 µM
[9] = molecular target: Serine/threonine-protein kinase ULK2 (Homo sapiens) (UniProt Q8IYT8); experiment: % Activity remaining of ULK2 in the Dundee kinase panel at 1.0 µM
Chain of Serine/threonine-protein kinase ULK2 (Homo sapiens) (Q8IYT8 whole entry): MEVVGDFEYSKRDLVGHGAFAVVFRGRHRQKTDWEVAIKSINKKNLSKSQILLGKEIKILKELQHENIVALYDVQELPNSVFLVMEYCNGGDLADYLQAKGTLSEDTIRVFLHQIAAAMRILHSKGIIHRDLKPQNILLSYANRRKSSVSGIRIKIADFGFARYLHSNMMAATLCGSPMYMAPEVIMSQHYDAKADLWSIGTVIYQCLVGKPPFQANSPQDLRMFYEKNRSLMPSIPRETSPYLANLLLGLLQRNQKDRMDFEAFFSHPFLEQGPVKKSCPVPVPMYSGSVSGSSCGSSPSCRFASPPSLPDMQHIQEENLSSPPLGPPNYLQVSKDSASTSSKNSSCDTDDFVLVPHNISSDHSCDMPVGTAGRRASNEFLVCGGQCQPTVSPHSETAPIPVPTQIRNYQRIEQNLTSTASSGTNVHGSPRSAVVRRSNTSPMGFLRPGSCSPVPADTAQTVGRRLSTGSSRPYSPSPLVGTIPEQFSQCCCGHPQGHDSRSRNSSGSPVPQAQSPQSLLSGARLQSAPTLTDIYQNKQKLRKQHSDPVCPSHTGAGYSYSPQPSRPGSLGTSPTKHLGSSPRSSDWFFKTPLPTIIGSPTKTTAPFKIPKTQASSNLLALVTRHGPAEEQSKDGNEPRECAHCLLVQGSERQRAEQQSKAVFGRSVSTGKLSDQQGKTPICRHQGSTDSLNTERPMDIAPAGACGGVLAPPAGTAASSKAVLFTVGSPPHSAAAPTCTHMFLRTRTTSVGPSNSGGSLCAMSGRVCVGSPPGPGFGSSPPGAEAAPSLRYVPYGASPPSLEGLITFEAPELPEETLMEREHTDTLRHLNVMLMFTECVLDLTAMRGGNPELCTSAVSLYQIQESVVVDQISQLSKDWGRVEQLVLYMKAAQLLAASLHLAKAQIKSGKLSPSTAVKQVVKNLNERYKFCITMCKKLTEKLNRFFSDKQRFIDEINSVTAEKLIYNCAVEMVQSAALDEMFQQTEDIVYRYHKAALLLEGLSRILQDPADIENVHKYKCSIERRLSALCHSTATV

[10] = molecular target: Inhibitor of nuclear factor kappa-B kinase subunit beta (Homo sapiens) (UniProt O14920); experiment: % Activity remaining of IKK beta in the Dundee kinase panel at 1.0 µM
[11] = molecular target: Tyrosine-protein kinase SYK (Homo sapiens) (UniProt P43405); experiment: % Activity remaining of SYK in the Dundee kinase panel at 1.0 µM
[12] = molecular target: Serine/threonine-protein kinase tousled-like 1 (Homo sapiens) (UniProt Q9UKI8); experiment: % Activity remaining of TLK1 in the Dundee kinase panel at 1.0 µM
[13] = molecular target: Tyrosine-protein kinase ZAP-70 (Homo sapiens) (UniProt P43403); experiment: % Activity remaining of ZAP70 in the Dundee kinase panel at 1.0 µM
Chain of Tyrosine-protein kinase ZAP-70 (Homo sapiens) (P43403 whole entry): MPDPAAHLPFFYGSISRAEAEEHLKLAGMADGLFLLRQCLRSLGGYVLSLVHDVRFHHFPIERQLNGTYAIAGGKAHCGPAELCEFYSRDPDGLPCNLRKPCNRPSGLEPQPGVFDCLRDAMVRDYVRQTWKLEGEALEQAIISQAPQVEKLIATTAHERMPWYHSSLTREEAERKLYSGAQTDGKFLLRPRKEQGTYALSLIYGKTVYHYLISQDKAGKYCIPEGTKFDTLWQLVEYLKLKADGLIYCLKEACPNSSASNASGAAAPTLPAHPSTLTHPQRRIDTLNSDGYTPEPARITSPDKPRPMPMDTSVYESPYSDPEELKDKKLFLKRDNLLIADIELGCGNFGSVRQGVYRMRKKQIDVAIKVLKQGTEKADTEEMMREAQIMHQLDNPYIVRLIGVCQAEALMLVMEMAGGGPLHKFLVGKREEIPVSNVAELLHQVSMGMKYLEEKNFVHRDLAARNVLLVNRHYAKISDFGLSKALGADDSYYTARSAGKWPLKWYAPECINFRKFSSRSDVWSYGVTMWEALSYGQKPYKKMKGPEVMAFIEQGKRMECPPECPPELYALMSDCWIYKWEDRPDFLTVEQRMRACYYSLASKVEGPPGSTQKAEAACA

[14] = molecular target: Dual specificity tyrosine-phosphorylation-regulated kinase 2 (Homo sapiens) (UniProt Q92630); experiment: % Activity remaining of DYRK2 in the Dundee kinase panel at 1.0 µM
Chain of Dual specificity tyrosine-phosphorylation-regulated kinase 2 (Homo sapiens) (Q92630 whole entry, canonical isoform): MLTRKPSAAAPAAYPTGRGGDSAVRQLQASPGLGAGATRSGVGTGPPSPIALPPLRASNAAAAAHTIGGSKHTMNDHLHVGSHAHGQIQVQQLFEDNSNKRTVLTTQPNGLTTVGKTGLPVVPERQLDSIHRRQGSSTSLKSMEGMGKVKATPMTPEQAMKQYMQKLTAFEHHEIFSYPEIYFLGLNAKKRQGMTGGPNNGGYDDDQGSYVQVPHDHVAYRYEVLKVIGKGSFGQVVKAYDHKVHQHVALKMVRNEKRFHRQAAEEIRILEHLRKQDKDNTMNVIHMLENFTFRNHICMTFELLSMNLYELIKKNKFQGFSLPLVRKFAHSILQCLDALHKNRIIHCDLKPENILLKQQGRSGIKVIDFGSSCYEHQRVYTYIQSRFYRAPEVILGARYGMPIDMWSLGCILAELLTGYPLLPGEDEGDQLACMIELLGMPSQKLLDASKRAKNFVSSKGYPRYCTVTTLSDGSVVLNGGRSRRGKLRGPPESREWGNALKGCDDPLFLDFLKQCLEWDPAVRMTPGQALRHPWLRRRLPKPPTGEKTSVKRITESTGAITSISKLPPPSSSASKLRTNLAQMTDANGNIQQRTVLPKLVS

[15] = molecular target: Casein kinase I isoform gamma-2 (Homo sapiens) (UniProt P78368); experiment: % Activity remaining of CK1 gamma 2 in the Dundee kinase panel at 1.0 µM
[16] = molecular target: MAP kinase-activated protein kinase 5 (Homo sapiens) (UniProt Q8IW41); experiment: % Activity remaining of PRAK in the Dundee kinase panel at 1.0 µM
[17] = molecular target: Phosphorylase b kinase regulatory subunit alpha, liver isoform (Homo sapiens) (UniProt P46019); experiment: % Activity remaining of PHK in the Dundee kinase panel at 1.0 µM
[18] = molecular target: Inhibitor of nuclear factor kappa-B kinase subunit epsilon (Homo sapiens) (UniProt Q14164); experiment: % Activity remaining of IKK epsilon in the Dundee kinase panel at 1.0 µM
[19] = molecular target: Ephrin type-B receptor 1 (Homo sapiens) (UniProt P54762); experiment: % Activity remaining of EPH-B1 in the Dundee kinase panel at 1.0 µM
[20] = molecular target: Homeodomain-interacting protein kinase 2 (Homo sapiens) (UniProt Q9H2X6); experiment: % Activity remaining of HIPK2 in the Dundee kinase panel at 1.0 µM
[21] = molecular target: Testis-specific serine/threonine-protein kinase 1 (Homo sapiens) (UniProt Q9BXA7); experiment: % Activity remaining of TSSK1 in the Dundee kinase panel at 1.0 µM
[22] = molecular target: Mitogen-activated protein kinase kinase kinase 11 (Homo sapiens) (UniProt Q16584); experiment: % Activity remaining of MLK3 in the Dundee kinase panel at 1.0 µM
[23] = molecular target: Tyrosine-protein kinase CSK (Homo sapiens) (UniProt P41240); experiment: % Activity remaining of CSK in the Dundee kinase panel at 1.0 µM
[24] = molecular target: Receptor tyrosine-protein kinase erbB-4 (Homo sapiens) (UniProt Q15303); experiment: % Activity remaining of HER4 in the Dundee kinase panel at 1.0 µM
[25] = molecular target: Tau-tubulin kinase 2 (Homo sapiens) (UniProt Q6IQ55); experiment: % Activity remaining of TTBK2 in the Dundee kinase panel at 1.0 µM
[26] = molecular target: Proto-oncogene tyrosine-protein kinase Src (Homo sapiens) (UniProt P12931); experiment: % Activity remaining of Src in the Dundee kinase panel at 1.0 µM
[27] = molecular target: Angiopoietin-1 receptor (Homo sapiens) (UniProt Q02763); experiment: % Activity remaining of TIE2 in the Dundee kinase panel at 1.0 µM
[28] = molecular target: Dual specificity protein kinase TTK (Homo sapiens) (UniProt P33981); experiment: % Activity remaining of TTK in the Dundee kinase panel at 1.0 µM
[29] = molecular target: Mitogen-activated protein kinase kinase kinase kinase 3 (Homo sapiens) (UniProt Q8IVH8); experiment: % Activity remaining of MAP4K3 in the Dundee kinase panel at 1.0 µM
Chain of Mitogen-activated protein kinase kinase kinase kinase 3 (Homo sapiens) (Q8IVH8 whole entry): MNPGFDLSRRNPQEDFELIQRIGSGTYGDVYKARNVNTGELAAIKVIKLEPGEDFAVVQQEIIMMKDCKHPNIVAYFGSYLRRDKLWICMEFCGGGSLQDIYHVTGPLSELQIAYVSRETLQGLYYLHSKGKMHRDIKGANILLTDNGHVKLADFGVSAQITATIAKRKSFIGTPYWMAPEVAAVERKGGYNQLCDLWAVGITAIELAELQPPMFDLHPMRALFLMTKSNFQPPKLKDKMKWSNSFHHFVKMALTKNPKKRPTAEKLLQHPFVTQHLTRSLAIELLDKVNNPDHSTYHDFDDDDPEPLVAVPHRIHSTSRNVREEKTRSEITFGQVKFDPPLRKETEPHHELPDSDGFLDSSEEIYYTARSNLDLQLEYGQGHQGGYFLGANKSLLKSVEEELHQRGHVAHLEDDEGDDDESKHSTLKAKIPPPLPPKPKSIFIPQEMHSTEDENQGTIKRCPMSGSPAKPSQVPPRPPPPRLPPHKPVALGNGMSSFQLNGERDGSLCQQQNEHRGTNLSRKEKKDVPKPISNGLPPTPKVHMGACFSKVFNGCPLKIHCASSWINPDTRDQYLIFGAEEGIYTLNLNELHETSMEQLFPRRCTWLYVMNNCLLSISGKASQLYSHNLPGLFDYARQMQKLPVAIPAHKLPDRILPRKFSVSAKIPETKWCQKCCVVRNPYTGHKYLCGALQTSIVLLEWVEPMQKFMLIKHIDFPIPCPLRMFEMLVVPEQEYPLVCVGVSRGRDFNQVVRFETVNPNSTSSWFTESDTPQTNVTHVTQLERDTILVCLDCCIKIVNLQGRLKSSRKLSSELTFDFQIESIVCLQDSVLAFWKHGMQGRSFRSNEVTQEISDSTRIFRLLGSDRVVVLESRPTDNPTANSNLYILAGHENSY

[30] = molecular target: SRSF protein kinase 1 (Homo sapiens) (UniProt Q96SB4); experiment: % Activity remaining of SRPK1 in the Dundee kinase panel at 1.0 µM
[31] = molecular target: Platelet-derived growth factor receptor alpha (Homo sapiens) (UniProt P16234); experiment: % Activity remaining of PDGFRA in the Dundee kinase panel at 1.0 µM
[32] = molecular target: MAP/microtubule affinity-regulating kinase 3 (Homo sapiens) (UniProt P27448); experiment: % Activity remaining of MARK3 in the Dundee kinase panel at 1.0 µM
[33] = molecular target: Cyclin-dependent kinase 2/cyclin A (Homo sapiens) (UniProt P24941+P20248+P78396); experiment: % Activity remaining of CDK2-Cyclin A in the Dundee kinase panel at 1.0 µM; format: protein-complex assay
[34] = molecular target: Serine/threonine-protein kinase PAK 4 (Homo sapiens) (UniProt O96013); experiment: % Activity remaining of PAK4 in the Dundee kinase panel at 1.0 µM
Chain of Serine/threonine-protein kinase PAK 4 (Homo sapiens) (O96013 whole entry, looked up): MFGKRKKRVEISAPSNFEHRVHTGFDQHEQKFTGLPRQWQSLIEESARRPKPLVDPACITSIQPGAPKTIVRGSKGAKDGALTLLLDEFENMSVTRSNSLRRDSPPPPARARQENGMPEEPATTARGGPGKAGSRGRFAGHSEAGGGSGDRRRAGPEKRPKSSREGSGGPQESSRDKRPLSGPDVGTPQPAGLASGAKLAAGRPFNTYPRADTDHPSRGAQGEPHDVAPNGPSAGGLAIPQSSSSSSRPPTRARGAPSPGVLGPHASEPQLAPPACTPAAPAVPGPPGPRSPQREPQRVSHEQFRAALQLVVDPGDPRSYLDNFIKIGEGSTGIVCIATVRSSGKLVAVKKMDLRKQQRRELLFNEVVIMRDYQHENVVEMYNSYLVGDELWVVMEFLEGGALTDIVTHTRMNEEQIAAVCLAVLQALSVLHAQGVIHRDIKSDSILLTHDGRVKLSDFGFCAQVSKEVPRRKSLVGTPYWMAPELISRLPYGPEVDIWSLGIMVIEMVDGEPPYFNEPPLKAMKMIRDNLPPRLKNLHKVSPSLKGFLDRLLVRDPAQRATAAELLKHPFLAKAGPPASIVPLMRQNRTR

[35] = molecular target: Homeodomain-interacting protein kinase 3 (Homo sapiens) (UniProt Q9H422); experiment: % Activity remaining of HIPK3 in the Dundee kinase panel at 1.0 µM
Chain of Homeodomain-interacting protein kinase 3 (Homo sapiens) (Q9H422 whole entry, looked up): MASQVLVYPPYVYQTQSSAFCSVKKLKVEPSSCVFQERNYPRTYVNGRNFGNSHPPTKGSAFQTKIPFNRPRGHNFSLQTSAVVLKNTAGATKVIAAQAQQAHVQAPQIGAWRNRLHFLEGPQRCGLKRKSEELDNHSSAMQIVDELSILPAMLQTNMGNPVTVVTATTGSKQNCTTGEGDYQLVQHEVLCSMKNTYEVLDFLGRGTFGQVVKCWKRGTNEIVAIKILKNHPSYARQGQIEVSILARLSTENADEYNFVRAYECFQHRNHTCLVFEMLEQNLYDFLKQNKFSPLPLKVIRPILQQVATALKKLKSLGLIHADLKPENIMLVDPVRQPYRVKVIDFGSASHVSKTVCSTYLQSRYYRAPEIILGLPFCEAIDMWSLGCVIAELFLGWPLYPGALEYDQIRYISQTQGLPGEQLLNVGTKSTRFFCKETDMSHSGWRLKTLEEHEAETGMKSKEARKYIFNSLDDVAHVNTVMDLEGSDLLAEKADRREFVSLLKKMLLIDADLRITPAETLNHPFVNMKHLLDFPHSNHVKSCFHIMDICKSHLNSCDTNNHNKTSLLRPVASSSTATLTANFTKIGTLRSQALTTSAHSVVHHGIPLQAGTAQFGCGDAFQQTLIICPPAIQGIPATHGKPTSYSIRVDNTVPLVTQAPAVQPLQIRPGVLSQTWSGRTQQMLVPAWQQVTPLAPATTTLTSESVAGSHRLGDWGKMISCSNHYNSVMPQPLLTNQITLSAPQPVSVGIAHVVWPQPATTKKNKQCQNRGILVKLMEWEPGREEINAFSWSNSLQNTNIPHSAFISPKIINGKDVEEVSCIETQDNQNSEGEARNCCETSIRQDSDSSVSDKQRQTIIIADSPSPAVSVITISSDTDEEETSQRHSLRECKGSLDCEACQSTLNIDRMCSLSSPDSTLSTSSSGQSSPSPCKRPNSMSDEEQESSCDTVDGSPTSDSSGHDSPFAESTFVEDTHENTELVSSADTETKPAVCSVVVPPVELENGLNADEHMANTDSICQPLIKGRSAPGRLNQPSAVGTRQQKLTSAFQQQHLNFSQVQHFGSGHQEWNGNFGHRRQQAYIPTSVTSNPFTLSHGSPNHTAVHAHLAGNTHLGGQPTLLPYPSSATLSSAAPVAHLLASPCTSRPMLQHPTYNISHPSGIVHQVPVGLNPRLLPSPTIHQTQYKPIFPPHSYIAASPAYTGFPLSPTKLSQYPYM

[36] = molecular target: Tyrosine-protein kinase Lck (Homo sapiens) (UniProt P06239); experiment: % Activity remaining of Lck in the Dundee kinase panel at 1.0 µM
[37] = molecular target: Eukaryotic elongation factor 2 kinase (Homo sapiens) (UniProt O00418); experiment: % Activity remaining of EF2K in the Dundee kinase panel at 1.0 µM
[38] = molecular target: Dual specificity mitogen-activated protein kinase kinase 1 (Homo sapiens) (UniProt Q02750); experiment: % Activity remaining of MKK1 in the Dundee kinase panel at 1.0 µM
[39] = molecular target: Serine/threonine-protein kinase Nek6 (Homo sapiens) (UniProt Q9HC98); experiment: % Activity remaining of NEK6 in the Dundee kinase panel at 1.0 µM

Measured: % Activity remaining

Cc1ccc(F)c(S(=O)(=O)Nc2ccc(-c3nc(OC[C@H]4CN(CCCCCCOCCOCCOCC(=O)N[C@H](C(=O)N5C[C@H](O)C[C@H]5C(=O)NCc5ccc(-c6scnc6C)cc5)C(C)(C)C)CCO4)c4cn[nH]c4n3)cc2)c1
inactive: [1] 114% | [2] 93.4% | [3] 106% | [4] 105% | [5] 108% | [6] 94.5% | [7] 99.4% | [8] 116% | [9] 103% | [10] 99.9% | [11] 116% | [12] 102% | [13] 75% | [14] 102% | [15] 101% | [16] 115% | [17] 113% | [18] 108% | [19] 99.9% | [20] 109% | [21] 115% | [22] 70.5% | [23] 118% | [24] 92% | [25] 93.5% | [26] 83.4% | [27] 63.8% | [28] 89.4% | [29] 98.8% | [30] 95.8% | [31] 101% | [32] 98.4% | [33] 101% | [34] 81.1% | [35] 111% | [36] 124% | [37] 97.5% | [38] 106% | [39] 106%

Cc1ccc(F)c(S(=O)(=O)Nc2ccc(-c3nc(OC[C@H]4CN(CCCCCCOCCOCCOCC(=O)N[C@H](C(=O)N5C[C@@H](O)C[C@H]5C(=O)NCc5ccc(-c6scnc6C)cc5)C(C)(C)C)CCO4)c4cn[nH]c4n3)cc2)c1
inactive: [1] 134% | [2] 111% | [3] 89.4% | [4] 101% | [5] 106% | [6] 96.5% | [7] 93% | [8] 98.7% | [9] 117% | [10] 101% | [11] 103% | [12] 109% | [13] 74.7% | [14] 97.3% | [15] 106% | [16] 119% | [17] 122% | [18] 99% | [19] 108% | [20] 99.7% | [21] 113% | [22] 75.6% | [23] 113% | [24] 103% | [25] 89.7% | [26] 86.8% | [27] 80.8% | [28] 99.4% | [29] 95.5% | [30] 104% | [31] 94.8% | [32] 109% | [33] 103% | [34] 113% | [35] 105% | [36] 116% | [37] 105% | [38] 102% | [39] 111%
